# Measurements from US20030181447A1, “3-(Diarylmethylene)-8-azabicyclo[3.2.1]octane derivatives” (priority 2001, published 2003).
# Structures can show the parent of a compound that is named as a salt.
# How the values were obtained:
# [1] = tested on: mouse acetylcholine bromide-induced abdominal constriction; assay: Mouse acetylcholine bromide-induced abdominal constriction assay; type: in vivo; details: 150 μmole/Kg p.o., 30 min before 5.5 mg/kg acetylcholine bromide i.p.
# Experimental: Mouse Acetylcholine Bromide-Induced Abdominal Constriction Assay
# The mouse acetylcholine-induced abdominal constriction assay (as described by Collier et al. in Brit. J. Pharmacol. Chem. Ther., 1968, 32: 295-310 with minor modifications) was used to assess analgesic potency of the compounds of formula (I). The test drugs or appropriate vehicles were administered orally (p.o.) and 30 min later the animal received an intraperitoneal (i.p.) injection of 5.5 mg/kg acetylcholine bromide (Matheson, Coleman and Bell, East Rutherford, N.J.). The mice were then placed in groups of three into glass bell jars and observed for a ten min observation period for the occurrence of an abdominal constriction response (defined as a wave of constriction and elongation passing caudally along the abdominal wall, accompanied by a twisting of the trunk and followed by extension of the hind limbs). For compounds of the present invention, the percent inhibition of this response to a nociceptive stimulus (equated to % analgesia) was calculated as follows: [formula]
Compound,melting point,percent inhibition of abdominal constriction response (% analgesia) [1] [%]
"CCNC(=O)c1ccc(C(=C2CC3CCC(C2)N3CCc2ccccc2)c2ccccc2)cc1 (as salt: HCl) [Example 26, N-Ethyl-4-[(8-phenethyl-8-azabicyclo[3.2.1]oct-3-ylidene)phenylmethyl]benzamide]",296 to 298 °C (dec.),–
"NC(=O)c1ccc(C(=C2CC3CCC(C2)N3CCc2ccccc2)c2ccccc2)cc1 (as salt: hydrochloride) [Example 29, 4-[(8-Phenethyl-8-azabicyclo[3.2.1]oct-3-ylidene)phenylmethyl]benzamide Hydrochloride [1:1].]",210 to 212 °C,–
"CCN(CC)C(=O)c1ccc(C(=C2CC3CCC(C2)N3CCc2ccccc2)c2ccccc2)cc1 (single isomer, unassigned; (+)) (as salt: hydrochloride) [Example 24]",211 to 212 °C,–
"CCN(CC)C(=O)c1ccc(C(=C2CC3CCC(C2)N3CCc2ccccc2)c2ccccc2)cc1 (single isomer, unassigned; (-)) (as salt: hydrochloride) [Example 23]",210 to 211 °C,–
"CCN(CC)C(=O)c1ccc(C(=C2CC3CCC(C2)N3C)c2ccccc2)cc1.Cl [Example 1, N,N-Diethyl-4-[(8-methyl-8-azabicyclo[3.2.1]oct-3-ylidene)phenylmethyl]benzamide Hydrochloride [1:1]]",145 to 147 °C,87
"CCN(CC)C(=O)c1ccc(C(=C2CC3CCC(C2)N3)c2ccccc2)cc1.Cl [Example 2, N,N-Diethyl-4-[(8-azabicyclo[3.2.1]oct-3-ylidene)phenylmethyl]benzamide Hydrochloride [1:1]]",128 to 132 °C,–
"CCCN1C2CCC1CC(=C(c1ccccc1)c1ccc(C(=O)N(CC)CC)cc1)C2.Cl [Example 18, N,N-Diethyl-4-[(8-propyl-8-azabicyclo[3.2.1]oct-3-ylidene)phenylmethyl]benzamide Hydrochloride [1:1]]",184 °C,–
"CN(C(=O)c1cccc(C(=C2CC3CCC(C2)N3C)c2ccccc2)c1)c1cccc(F)c1.O=C(O)/C=C/C(=O)O [Example 22, N-(3-Fluorophenyl)-N-methyl-3-[(8-methyl-8-azabicyclo[3.2.1]oct-3-ylidene)phenylmethyl]benzamide Fumarate [1:1]]",122 to 125 °C,–
